Experimental data from ChEMBL document CHEMBL2346647, “Identification and characterization of small molecule inhibitors of signal transducer and activator of transcription 3 (STAT3) signaling pathway by virtual screening” (Bioorg Med Chem Lett, 2013).
Calls of active or inactive are those of the source. No cut-off for these calls is given here.

Tests used:
[1] = biological target: Signal transducer and activator of transcription 3 (Homo sapiens) (UniProt P40763); test: Inhibition of IL-6-induced STAT3 pathway in human HepG2 cells at 10 uM by luciferase reporter gene assay; assay type: cell-based
Chain of Signal transducer and activator of transcription 3 (Homo sapiens) (P40763 whole entry): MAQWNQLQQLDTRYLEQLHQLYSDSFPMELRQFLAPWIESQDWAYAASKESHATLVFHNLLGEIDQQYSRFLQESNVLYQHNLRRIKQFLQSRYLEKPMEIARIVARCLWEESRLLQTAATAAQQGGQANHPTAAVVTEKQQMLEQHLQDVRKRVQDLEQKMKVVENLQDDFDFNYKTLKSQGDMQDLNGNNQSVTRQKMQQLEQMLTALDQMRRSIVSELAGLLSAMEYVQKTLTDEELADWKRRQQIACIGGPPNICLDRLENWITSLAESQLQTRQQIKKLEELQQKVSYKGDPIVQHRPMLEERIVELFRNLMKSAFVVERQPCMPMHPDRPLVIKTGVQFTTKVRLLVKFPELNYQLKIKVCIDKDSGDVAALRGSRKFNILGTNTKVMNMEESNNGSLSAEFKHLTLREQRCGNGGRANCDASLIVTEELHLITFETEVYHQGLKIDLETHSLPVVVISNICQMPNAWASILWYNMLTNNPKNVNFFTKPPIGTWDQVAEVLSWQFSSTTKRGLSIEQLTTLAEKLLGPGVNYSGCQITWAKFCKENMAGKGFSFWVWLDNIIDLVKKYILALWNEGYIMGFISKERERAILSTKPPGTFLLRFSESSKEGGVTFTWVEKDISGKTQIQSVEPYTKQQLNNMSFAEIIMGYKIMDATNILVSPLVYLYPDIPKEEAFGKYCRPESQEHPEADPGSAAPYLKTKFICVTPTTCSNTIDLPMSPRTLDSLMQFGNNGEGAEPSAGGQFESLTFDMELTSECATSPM

MDA-MB-468 [2] = test: Cytotoxicity against human MDA-MB-468 cells assessed as inhibition of cell viability at 10 uM; assay type: functional
HepG2 [3] = test: Effect on JAK2 protein level in human HepG2 cells pretreated at 50 uM for 48 hrs prior to IL-6 stimulation by Western blot analysis; assay type: functional, cell-based
[4] = biological target: Signal transducer and activator of transcription 3 (Homo sapiens) (UniProt P40763); test: Inhibition of IL-6-induced STAT3 phosphorylation at Tyr705 residue in human HepG2 cells pretreated at 50 uM for 6 to 48 hrs prior to IL-6 stimulation by Western blot analysis; assay type: cell-based
MDA-MB-468 [5] = test: Cytotoxicity against human MDA-MB-468 cells assessed as inhibition of cell viability; assay type: functional, cell-based
HepG2 [6] = test: Effect on SRC protein level in human HepG2 cells pretreated at 50 uM for 48 hrs prior to IL-6 stimulation by Western blot analysis; assay type: functional, cell-based
HepG2 [7] = test: Effect on total STAT3 protein level in human HepG2 cells pretreated for 6 hrs prior to IL-6 stimulation by Western blot analysis; assay type: functional, cell-based
[8] = biological target: Tyrosine-protein kinase JAK2 (Homo sapiens) (UniProt O60674); test: Effect on JAK2 in human HepG2 cells pretreated at 50 uM for 48 hrs prior to IL-6 stimulation by Western blot analysis; assay type: cell-based
Chain of Tyrosine-protein kinase JAK2 (Homo sapiens) (O60674 whole entry): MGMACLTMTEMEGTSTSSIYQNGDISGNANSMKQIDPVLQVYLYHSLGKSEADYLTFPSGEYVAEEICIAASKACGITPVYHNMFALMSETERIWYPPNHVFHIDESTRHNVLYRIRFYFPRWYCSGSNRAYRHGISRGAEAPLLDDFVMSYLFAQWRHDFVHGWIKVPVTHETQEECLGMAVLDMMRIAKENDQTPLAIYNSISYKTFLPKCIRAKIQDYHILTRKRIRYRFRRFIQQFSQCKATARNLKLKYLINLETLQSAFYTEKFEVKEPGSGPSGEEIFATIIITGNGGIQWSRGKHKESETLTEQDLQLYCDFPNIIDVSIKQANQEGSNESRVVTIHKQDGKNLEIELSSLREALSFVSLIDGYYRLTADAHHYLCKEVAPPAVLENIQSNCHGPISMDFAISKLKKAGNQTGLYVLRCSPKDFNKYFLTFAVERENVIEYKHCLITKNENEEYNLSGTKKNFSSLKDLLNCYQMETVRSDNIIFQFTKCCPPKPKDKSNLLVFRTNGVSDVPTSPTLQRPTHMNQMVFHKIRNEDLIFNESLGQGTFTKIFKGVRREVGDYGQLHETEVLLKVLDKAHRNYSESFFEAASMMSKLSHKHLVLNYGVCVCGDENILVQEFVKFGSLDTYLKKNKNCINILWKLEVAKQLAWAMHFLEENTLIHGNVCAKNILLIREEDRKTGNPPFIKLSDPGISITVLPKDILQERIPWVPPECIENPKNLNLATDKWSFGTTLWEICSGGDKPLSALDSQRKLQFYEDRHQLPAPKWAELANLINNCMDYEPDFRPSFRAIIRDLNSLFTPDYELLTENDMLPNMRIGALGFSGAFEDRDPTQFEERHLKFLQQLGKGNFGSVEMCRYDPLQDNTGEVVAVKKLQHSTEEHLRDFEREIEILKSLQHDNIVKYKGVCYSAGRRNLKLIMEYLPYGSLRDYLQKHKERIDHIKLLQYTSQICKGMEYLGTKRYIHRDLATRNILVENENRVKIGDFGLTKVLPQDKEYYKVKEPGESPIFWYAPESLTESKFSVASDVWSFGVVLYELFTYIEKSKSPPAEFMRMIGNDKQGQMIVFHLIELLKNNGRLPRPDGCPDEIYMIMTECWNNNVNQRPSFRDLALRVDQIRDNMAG

[9] = biological target: Proto-oncogene tyrosine-protein kinase Src (Homo sapiens) (UniProt P12931); test: Effect on SRC in human HepG2 cells pretreated at 50 uM for 6 to 48 hrs prior to IL-6 stimulation by Western blot analysis; assay type: cell-based
Chain of Proto-oncogene tyrosine-protein kinase Src (Homo sapiens) (P12931 2-536 limits assumed): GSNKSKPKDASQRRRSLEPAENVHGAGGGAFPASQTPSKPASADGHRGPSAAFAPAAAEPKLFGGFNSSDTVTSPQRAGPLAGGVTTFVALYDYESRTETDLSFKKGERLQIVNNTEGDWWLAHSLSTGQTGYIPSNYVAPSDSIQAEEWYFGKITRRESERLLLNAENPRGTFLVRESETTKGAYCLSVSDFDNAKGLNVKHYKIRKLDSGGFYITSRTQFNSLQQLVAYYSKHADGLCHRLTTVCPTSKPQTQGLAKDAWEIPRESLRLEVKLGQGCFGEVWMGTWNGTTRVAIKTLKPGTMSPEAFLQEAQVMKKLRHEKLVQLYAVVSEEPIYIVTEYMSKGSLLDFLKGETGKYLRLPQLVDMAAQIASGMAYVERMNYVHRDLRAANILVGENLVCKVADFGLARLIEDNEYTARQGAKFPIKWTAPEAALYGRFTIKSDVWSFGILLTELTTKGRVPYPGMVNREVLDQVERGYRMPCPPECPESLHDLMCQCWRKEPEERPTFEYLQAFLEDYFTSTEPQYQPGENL

[10] = biological target: Signal transducer and activator of transcription 3 (Homo sapiens) (UniProt P40763); test: Inhibition of IL-6-induced STAT3 phosphorylation at Tyr705 residue in human HepG2 cells pretreated for 6 to 48 hrs prior to IL-6 stimulation by Western blot analysis; assay type: cell-based
[11] = biological target: T1, Signal transducer and activator of transcription 1-alpha/beta (Homo sapiens) (UniProt P42224); test: Inhibition of IFN-gamma-induced STAT1 (unknown origin) at 10 uM
T1 sequence (whole entry): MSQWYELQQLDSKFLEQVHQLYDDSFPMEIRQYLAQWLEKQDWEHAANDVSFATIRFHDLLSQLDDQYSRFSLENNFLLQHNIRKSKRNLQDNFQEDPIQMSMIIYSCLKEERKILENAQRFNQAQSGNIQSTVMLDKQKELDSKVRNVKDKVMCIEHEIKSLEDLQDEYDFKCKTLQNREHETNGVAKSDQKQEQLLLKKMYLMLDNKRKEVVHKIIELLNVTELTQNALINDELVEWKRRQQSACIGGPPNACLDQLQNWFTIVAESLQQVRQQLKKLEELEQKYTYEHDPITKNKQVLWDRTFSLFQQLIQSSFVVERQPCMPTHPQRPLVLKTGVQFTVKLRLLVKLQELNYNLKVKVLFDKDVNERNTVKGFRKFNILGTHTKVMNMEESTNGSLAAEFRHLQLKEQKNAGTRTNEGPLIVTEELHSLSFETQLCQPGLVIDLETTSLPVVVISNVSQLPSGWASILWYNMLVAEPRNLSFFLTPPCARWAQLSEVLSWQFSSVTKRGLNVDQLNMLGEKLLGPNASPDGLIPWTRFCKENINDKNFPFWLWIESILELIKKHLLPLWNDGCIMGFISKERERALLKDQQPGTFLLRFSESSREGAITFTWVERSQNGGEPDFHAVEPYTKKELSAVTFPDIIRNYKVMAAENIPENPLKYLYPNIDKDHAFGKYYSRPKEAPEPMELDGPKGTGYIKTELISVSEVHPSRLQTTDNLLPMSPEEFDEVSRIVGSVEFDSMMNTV

Row | SMILES | inhibition [1] [%] | inhibition at 10 µM (MDA-MB-468 [2]) [%] | also measured
1 | COc1cc(/C=C/C(=O)CC(=O)/C=C/c2ccc(O)c(OC)c2)ccc1O [CURCUMIN] | 41 | 3.88 | inhibition [10]: Dose-dependent effect
2 | Cc1cccc(NCc2cc(Br)ccc2OCc2ccc(Cl)cc2)c1C | 34.5 | -2.03 | 
3 | Fc1ccc(COc2ccc(Cl)cc2CNCC2CCNCC2)cc1 |  | 38.8 | 
4 | COCCNCc1ccc(OCc2cc(Cl)cc(Cl)c2)cc1 | 20.2 | 16.4 | 
5 | Oc1ccc(NCc2cc(Cl)ccc2OCc2ccc(Cl)cc2)cc1 | 44.9 | 46.8 | Activity (HepG2 [3]): inactive; inhibition [11]: 14.3%; inhibition [4]: Active; IC50 (MDA-MB-468 [5]): 18.8 µM; Activity (HepG2 [6]): inactive; Activity (HepG2 [7]): inactive; Activity [8]: inactive; Activity [9]: inactive
6 | C#CCOc1ccc(Cl)cc1CNc1ccccc1Cl |  | 15.5 | 
7 | CC(O)CNCc1c(OCc2ccccc2Cl)ccc2ccccc12 (stereo not drawn) |  | 14.9 | 
8 | COc1ccc(Cl)cc1CNCc1ccc2c(c1)OCO2 | -6.39 | -4.03 | 

Further lines, with some results ahead:

Row | inhibition [1] [%] | SMILES | inhibition at 10 µM (MDA-MB-468 [2]) [%] | also measured
9 | 36.6 | Clc1ccc(OCc2ccccc2Cl)c(CNCc2ccccc2)c1 | 10.7 | 
10 | 42.1 | NS(=O)(=O)c1ccc(NCc2cc(Cl)ccc2OCc2ccccc2)cc1 | 27.7 | Activity (HepG2 [3]): inactive; inhibition [4]: Active; IC50 (MDA-MB-468 [5]): 28.3 µM; Activity (HepG2 [6]): inactive; Activity (HepG2 [7]): inactive; Activity [8]: inactive; Activity [9]: inactive
11 | 14.3 | NC(=O)COc1ccc(Cl)cc1CNCCc1ccccc1 | -8.1 | 
12 | 1.69 | NC(=O)COc1ccc(Cl)cc1CNCc1ccc(F)cc1 | 54.8 | 
13 | 33.2 | OCCNCc1cc(Br)ccc1OCc1ccc(Cl)cc1 | 26.6 | IC50 (MDA-MB-468 [5]): 23 µM
14 | -8.72 | O=C(O)c1ccc(CNCc2ccccc2OCc2ccccc2)cc1 | -10.8 | 
15 | 3.63 | NC(=O)COc1ccc(Cl)cc1CNCCN1CCOCC1 | -2.61 | 
16 | 27.8 | Fc1ccc(COc2ccc(Cl)cc2CNCC2CCCO2)cc1 (stereo not drawn) | 27.5 | 
17 | 15.6 | Clc1ccc(COc2ccccc2CNCc2ccccn2)cc1 | 18.9 | 
